“Also recorded” adds a separate entry of the source.
Legend:
[1] = test system: 129S6/SvEvTac mice; assay: Elevated plus maze (EPM) in SD experiments; format: in vivo; conditions: ketamine 30 mg kg^−1 before SD; Ctrl and SD groups
Procedure: Testing was performed as previously described (A14). Briefly, the maze is a plus-cross-shaped apparatus consisting of four arms, two open and two enclosed by walls, linked by a central platform at a height of 50 cm from the floor. Mice were individually placed in the center of the maze facing an open arm and were allowed to explore the maze for 5 min. The time spent in and the number of entries into the open arms was used as an anxiety index. For the 12956/SvEv experiments, videos were scored using behavioral tracking software (TopScan, CleverSys, Reston, Va.). For the C57BL/6Ntac experiments, all parameters were measured using a videotracker (EPM3C. Bioseb, Vitrolles, France).

[2] = test system: 129S6/SvEvTac mice; assay: Social interaction with a novel mouse after SD; format: in vivo; conditions: ketamine 30 mg kg^−1 before SD
Procedure: Mice were placed into a large open field containing 2 upside-down wire mesh pencil cups. One pencil cup served as a novel object or empty container. The other pencil cup contained a novel 129S6/SvEv male mouse. Mice were placed in the middle of the open field arena and allowed to explore for 10 min. Sessions were videotaped and the first 5 min were later analyzed using behavioral tracking software (TopScan, CleverSys, Reston, Va.).

[3] = test system: hypothalamic-pituitary-adrenal (HPA) axis; assay: Corticosterone enzyme immunoassay after a brief stressor (SD model); format: in vivo; conditions: SD mice; ketamine 10, 30 or 90 mg kg^−1 before SD; vs Ctrl-Sal
Procedure: Mice were exposed to a minor stressor for 10 min and then returned to their home cages. Blood was collected from awake mice 70 min after the start of the stressor from the retro-orbital sinus using hematocrit tubes. Blood was then transferred to Eppendorf tubes pre-coated with 5 μl 0.5 M EDTA, placed on ice, and immediately spun down to obtain plasma for subsequent EIA. Plasma was stored at −80° C. until analysis. EIA was performed using a DetectX Corticosterone EIA Kit (#K014-H1, Arbor Assays).

[4] = test system: chronic PTSD; conditions: intravenous infusion; compared with midazolam; cited from earlier work
[5] = test system: patients with MDD; conditions: cited from earlier work
[6] = test system: 129S6/SvEvTac mice; assay: Learned helplessness (LH) shock escape; format: in vivo; conditions: ketamine 30 mg kg^−1 1 week before LH training, vs saline
Procedure: Experiment 4 (Pre-ketamine in learned helplessness (LH)); At 8 weeks of age, a single injection of saline or ketamine (30 mg kg^−1) was administered. One week following this injection, LH training (inescapable shock) was administered. Two weeks later, mice were administered LH testing (shock escape).
The LH paradigm was used to induce depressive-like behavior (A4). In this paradigm, mice are exposed to unpredictable and uncontrollable stress (shocks) and then develop coping deficits to deal with the inescapable shocks. We modified a previously published paradigm (A5). Briefly, the procedure was conducted in a two-chamber shuttle box (model ENV 010MD; Med Associates, St. Albans, Vt.) located within a sound-attenuated cubicle. The grid floor was made of stainless steel and connected to a shock generator. The scrambled shock generator (model ENV 414S, Med Associates) created varying electrical potential differences between bars preventing an animal from avoiding shock.
Inescapable shock (training): At approximately 9 weeks of age, mice were trained in the LH paradigm. For each shuttle box, 2 animals were administered the protocol at the same time: the central door was closed, with one animal in the chamber on each side. After a 3 min habituation period, the shock deliveries began. […]

[7] = test system: 129S6/SvEvTac mice; assay: Fighting behavior during SD bouts; format: in vivo; conditions: for latency of the CD-1 to attack the 129S6/SvEv mouse: vs SD-Sal
Procedure: Adult aggressor CD-1 male mice were single-housed in Macrolon® polycarbonate resin cages (15.25 in×7.8 in×9.5 in) (Animal Care Systems, Inc., Centennial, Colo.). Male 129S6/SvEvTac mice (9 weeks of age) were subsequently placed into the resident. CD-1 mouse's cage. Three antagonistic encounters were allowed between the CD-1 mouse and the intruder. Each of these encounters typically lasted less than 5 min. Following the encounters, mice were separated by a polished stainless steel cage divider (Animal Care Systems, Inc., Centennial, Colo., P/N C79171), which allowed for olfactory and auditory communication, but limited visual or tactile contact. The partition was removed daily for 2 weeks and 3 antagonistic encounters were allowed between the mice each day. This procedure consistently yielded a submissive phenotype in the experimental intruder mice. Control (Ctrl) mice were group housed 4 to 5 per cage in Macrolon® polycarbonate resin cages without dividers.

[8] = in rodents; cited from earlier work
[9] = test system: military patients; conditions: McGhee et al., cited from earlier work
[10] = Body weight in CORT model; format: in vivo, mice; conditions: ketamine 90 mg kg^−1 single injection or fluoxetine 18 mg kg^−1 for 3 weeks, before CORT

CNC1(c2ccccc2Cl)CCCCC1=O (racemic) [ketamine, (RS)-2-(2-chlorophenyl)-2-(methylamino)cyclohexanone]
time in the closed arms of EPM [1]: no significant effect of ketamine in either group
social interaction with a novel mouse [2]: did not find an effect
levels of CORT following a brief stressor [3]: did not differ from Ctrl-Sal mice
PTSD symptom severity [4]: significant and rapid reduction in PTSD symptom severity
duration of sustained effects following the infusion ([5]; in vivo): 1-2 weeks
time to antidepressant effects following a single injection ([5]; patients with MDD): 2 h
latency to escape the shock ([6]; testing 2 weeks later): decreased latency to escape the shock; also recorded: significantly less
session length (all 30 trials) [6]: significantly shorter; also recorded: significantly less
average immobility during week 2 of SD bouts ([7]; SD-K vs SD-Sal): significantly decreased; also recorded: significantly altered
average immobility time during week 1 of SD bouts ([7]; all groups): not significantly different
latency of the CD-1 to attack the 129S6/SvEv mouse ([7]; ketamine 30 mg kg^−1, at the start of SD): significantly later; also recorded: only differed
latency of the CD-1 to attack the 129S6/SvEv mouse ([7]; ketamine 10 or 90 mg kg^−1): comparably attacked
half-life [8]: only a few hours
prevalence of PTSD ([9]; ketamine during an operation for burns vs no ketamine, 2008): decreased
incidence rate of PTSD ([9]; with and without intraoperative ketamine, 2014): comparable incidence rate of PTSD
CORT-induced increase in body weight [10]: prevented the CORT-induced increase in body weight

Source: patent US11110070B2 (priority 2015, dated 2021)
